# Measured values: US7528128B2, “Pyrrolo[2,1-C][1,4]benzodiazepine hybrids and a process for the preparation thereof” (Council of Scientific & Industrial Research, priority 2006, dated 2009)
# How the values were obtained:
# [1] = tested on: Colo205 (colon); experiment: In vitro cytotoxicity, 48 h continuous drug exposure; assay type: cell-based, human
# Protocol: (§1) In vitro evaluation of cytotoxic activity. The compound 5a, 5b, 5g, 5i and 5j were evaluated for in vitro anticancer activity against nine human tumour cells derived from six cancer types (colon, prostate, oral, lung, cervix and breast cancer) as shown in Table 3. […] Compounds 5a, 5b, 5g, 5i and 5j have been evaluated for their in vitro cytotoxicity in selected human cancer cell lines of colon (Colo205), lung (Hop-62), cervix (SiHa), prostate (DU145, PC3), oral (DWD, HT1080), and breast (MCF7, Zr-75-1) origin. A protocol of 48 h continuous drug exposure has been used and an […] has been used to estimate cell viability or growth. […] Compound 5a, Colo205 cell growth by 83%, DU145 cell growth by 84%, DWD cell growth by 70%, Hop62 cell growth by 87%, HT1080 cell growth by 80%, MCF7 cell growth by 73%, PC3 cell growth by 91%, SiHa cell growth by 67%, Zr-75-1 cell growth by 76%. Compound 5b, Colo205 cell growth by 20%, DU145 cell growth by 64%, DWD cell growth by 70%, Hop62 cell growth by 78%, HT1080 cell growth by 72%, MCF7 cell growth by 69%, PC3 cell growth by 72%, SiHa cell growth by 20%, Zr-75-1 cell growth by 20%. Compound 5g, Colo205 cell growth by 50%, DU145 cell growth by 20%, DWD cell growth by 94%, Hop62 cell growth by 84%, HT1080 cell growth by 94%, MCF7 cell growth by 71%, PC3 cell growth by 86%, SiHa cell growth by 74%, Zr-75-1 cell growth by 72%. Compound 5i, DU145 cell growth by 42%, Hop62 cell growth by 60%, HT1080 cell growth by 70%, Compound 5j, Colo205 cell growth by 44%, DU145 cell growth by 57%, DWD cell growth by 65%, Hop62 cell growth by 53%, HT1080 cell growth by 71%, PC3 cell growth by 81%, SiHa cell growth by 77%.
# [2] = tested on: DU145 (prostate); experiment: as above; assay type: cell-based, human
# Protocol: as §1
# [3] = tested on: DWD (oral); experiment: as above; assay type: cell-based, human
# Protocol: as §1
# [4] = tested on: HT1080 (oral); experiment: as above; assay type: cell-based, human
# Protocol: as §1
# [5] = tested on: Hop62 (lung); experiment: as above; assay type: cell-based, human
# Protocol: as §1
# [6] = tested on: MCF7 (breast); experiment: as above; assay type: cell-based, human
# Protocol: as §1
# [7] = tested on: PC3 (prostate); experiment: as above; assay type: cell-based, human
# Protocol: as §1
# [8] = tested on: SiHa (cervix); experiment: as above; assay type: cell-based, human
# Protocol: as §1
# [9] = tested on: Zr-75-1 (breast); experiment: as above; assay type: cell-based, human
# Protocol: as §1
# [10] = tested on: duplex-form calf thymus DNA (CT-DNA); experiment: Thermal denaturation studies with CT-DNA; assay type: binding
# Protocol: Compounds were subjected to thermal denaturation studies with duplex-form calf thymus DNA (CT-DNA) using an adaptation of a reported procedure. Working solutions in aqueous buffer (10 mM NaH2PO4/Na2HPO4, 1 mM Na2EDTA, pH 7.00+0.01) containing CT-DNA (100 μm in phosphate) and the PBD (20 μm) were prepared by addition of concentrated PBD solutions in DMSO to obtain a fixed [PBD]/[DNA] molar ratio of 1:5. The DNA-PBD solutions were incubated at 37° C. for 0, 18, and 36 h prior to analysis. Samples were monitored at 260 nm using a Beckman DU-7400 spectrophotometer fitted with high performance temperature controller, and heating was applied at 1° C. min−1 in the 40-90° C. range. DNA helix coil transition temperatures (Tm) were obtained from the maxima in the (dA260)/dT derivative plots. Results are given as the mean ±standard deviation from three determinations and are corrected for the effects of DMSO co-solvent using a linear correction term. Drug-induced alterations in DNA melting behaviour are given by: ΔTm=Tm(DNA+PBD)−Tm (DNA alone), where the Tm value for the PBD-free CT-DNA is 69.0±0.01.
# [11] = tested on: selected human cancer cell lines; experiment: In vitro cytotoxicity in selected human cancer cell lines (overall statements); assay type: cell-based; conditions: Table 3
# Protocol: as §1
# [12] = tested on: sixty human tumour cells; experiment: NCI in vitro anticancer screen, SRB protein assay, mean graph midpoints; assay type: cell-based; conditions: human tumour cell lines, 48 h continuous drug exposure
# Protocol: Biological Activity: some of in vitro biological activity studies were carried out at the National Cancer Institute, Maryland, USA.
# 5e was evaluated for in vitro anticancer activity against sixty human tumour cells derived from nine cancer types (leukemia, non-small-cell lung, colon, CNS, melanoma, ovarian, prostate, and breast cancer) as shown in (Table 1 and 2). For the compound, dose response curves for each cell line were measured at a minimum of five concentrations at 10 fold dilutions. A protocol of 48 h continuous drug exposure was used and a sulforhodamine B (SRB) protein assay was used to estimate cell viability or growth. The concentration causing 50% cell growth inhibition (GI50), total cell growth inhibition (TGI 0% growth) and 50% cell death (LC50, −50% growth) compared with the control was calculated.
# [13] = relative to untreated control cells
smiles,measurement,setting,value
"COc1cc2c(cc1OCCCCOc1ccc(Cl)cc1C(=O)c1ccccc1)N=C[C@@H]1CCCN1C2=O [Compound 5b, 7-methoxy-8-{4-[2-benzoyl-(4-chlorophenyloxy)butoxy]}-(11aS)-1,2,3,11a-tetrahydro-5H-pyrrolo[2,1-c][1,4]benzodiazepine-5-one]",Activity status in terms of IC50 value,"[1]; Colo205, Colon",32 µg/mL
same,cell growth by %,"[1]; Colo205, relative to untreated control cells",20%
same,Activity status in terms of IC50 value,"[2]; DU145, Prostate",35 µg/mL
same,cell growth by %,"[2]; DU145, relative to untreated control cells",64%
same,Activity status in terms of IC50 value,[3]; Oral,30 µg/mL
same,cell growth by %,[3]; [13],70%
same,Activity status in terms of IC50 value,"[4]; HT1080, Oral",28 µg/mL
same,cell growth by %,"[4]; HT1080, relative to untreated control cells",72%
same,Activity status in terms of IC50 value,"[5]; Hop62, Lung",22 µg/mL
same,cell growth by %,"[5]; Hop62, relative to untreated control cells",78%
same,Activity status in terms of IC50 value,"[6]; MCF7, Breast",31 µg/mL
same,cell growth by %,"[6]; MCF7, relative to untreated control cells",69%
same,Activity status in terms of IC50 value,"[7]; PC3, Prostate",28 µg/mL
same,cell growth by %,"[7]; PC3, relative to untreated control cells",72%
same,Activity status in terms of IC50 value,[8]; Cervix,>80 µg/mL
same,cell growth by %,[8]; [13],20%
same,Activity status in terms of IC50 value,"[9]; Zr-75-1, Breast",>80 µg/mL
same,cell growth by %,"[9]; Zr-75-1, relative to untreated control cells",20%
same,ΔTm after incubation at 37° C. for 0 h,"[10]; [PBD]:[DNA] 1:5, CT-DNA 100 μM, ligand 20 μM, pH 7.00, 0 h",1.5 °C
same,ΔTm after incubation at 37° C. for 18 h,"[10]; [PBD]:[DNA] 1:5, CT-DNA 100 μM, ligand 20 μM, pH 7.00, 18 h",2.1 °C
same,ΔTm after incubation at 37° C. for 36 h,"[10]; [PBD]:[DNA] 1:5, CT-DNA 100 μM, ligand 20 μM, pH 7.00, 36 h",2.6 °C
same,"course of ΔTm over 0 hr, 18 hr and 36 hr (in words)",[10]; incubation at 37° C.,gradually increased
same,cytotoxicity against some cancer cell lines (in words),[11],promising cytotoxicity
"COc1cc2c(cc1OCCCCCOc1c(C)cc(Cl)cc1C(=O)c1ccccc1)N=C[C@@H]1CCCN1C2=O [Compound 5f, 7-methoxy-8-{3-[2-benzoyl-(4-chloro-6-methylphenyloxy)pentoxy]}-(11aS)-1,2,3,11a-tetrahydro-5H-pyrrolo[2,1-c][1,4]benzodiazepine-5-one]",Log10GI50 mean graph midpoint (MG_MID),[12],−6.47
same,Log10LC50 mean graph midpoint (MG_MID),[12],−4.89
same,Log10TGI mean graph midpoint (MG_MID),[12],−5.24
